Test results: ChEMBL document CHEMBL4004803, “Syntheses and antibacterial activity of soluble 9-bromo substituted indolizinoquinoline-5,12-dione derivatives” (Eur J Med Chem, 2017)
Values after ≈ are worked out from the molar mass of the structure shown.

How the values were obtained:
Format in all cases: functional
Escherichia coli = test: Antibacterial activity against Escherichia coli ATCC 25922 after 20 to 24 hrs by two-fold microdilution method
Staphylococcus aureus [1] = test: Antibacterial activity against […] Staphylococcus aureus ATCC 25923 after 20 to 24 hrs by two-fold microdilution method
Staphylococcus aureus [2] = test: Antibacterial activity against methicillin-resistant Staphylococcus aureus ATCC 43300 after 20 to 24 hrs by two-fold microdilution method
[3] = system: Staphylococcus haemolyticus; test: Antibacterial activity against Staphylococcus haemolyticus CICC 10373 after 20 to 24 hrs by two-fold microdilution method
Streptococcus pyogenes = test: Antibacterial activity against Streptococcus pyogenes ATCC 19615 after 20 to 24 hrs by two-fold microdilution method
Streptococcus pneumoniae = test: Antibacterial activity against Streptococcus pneumoniae ATCC 6305 after 20 to 24 hrs by two-fold microdilution method
[4] = system: Staphylococcus epidermidis; test: Antibacterial activity against Staphylococcus epidermidis ATCC 12228 after 20 to 24 hrs by two-fold microdilution method
Enterococcus faecalis = test: Antibacterial activity against Enterococcus faecalis ATCC 29212 after 20 to 24 hrs by two-fold microdilution method
Staphylococcus aureus [5] = test: Antibacterial activity against methicillin-resistant Staphylococcus aureus clinical isolate after 20 to 24 hrs by two-fold microdilution method
Staphylococcus aureus [6] = test: Antibacterial activity against methicillin-resistant Staphylococcus aureus 1026021 clinical isolate after 20 to 24 hrs by two-fold microdilution method
Staphylococcus aureus [7] = test: Antibacterial activity against methicillin-resistant Staphylococcus aureus 1103006 clinical isolate after 20 to 24 hrs by two-fold microdilution method
Staphylococcus aureus [8] = test: Antibacterial activity against methicillin-resistant Staphylococcus aureus 1106003 clinical isolate after 20 to 24 hrs by two-fold microdilution method
Staphylococcus aureus [9] = test: Antibacterial activity against methicillin-resistant Staphylococcus aureus 111423 clinical isolate after 20 to 24 hrs by two-fold microdilution method
Staphylococcus aureus [10] = test: Antibacterial activity against methicillin-resistant Staphylococcus aureus 1216052 clinical isolate after 20 to 24 hrs by two-fold microdilution method

Row | SMILES | MIC (Escherichia coli) [µg/mL] | MIC (Staphylococcus aureus [1]) [µg/mL] | MIC (Staphylococcus aureus [2]) [µg/mL] | MIC [3] [µg/mL] | MIC (Streptococcus pyogenes) [µg/mL] | MIC (Streptococcus pneumoniae) [µg/mL] | MIC [4] [µg/mL] | MIC (Enterococcus faecalis) [µg/mL] | MIC50 (Staphylococcus aureus [5]) [µg/mL] | MIC90 (Staphylococcus aureus [5]) [µg/mL] | MIC (Staphylococcus aureus [6]) [µg/mL] | MIC (Staphylococcus aureus [7]) [µg/mL] | MIC (Staphylococcus aureus [8]) [µg/mL] | MIC (Staphylococcus aureus [9]) [µg/mL] | MIC (Staphylococcus aureus [10]) [µg/mL]
1 | CCOC(=O)c1c2c(n3cc(Br)ccc13)C(=O)c1ncccc1C2=O | > 16 | 0.063 (≈ 0.158 µM) | 0.063 (≈ 0.158 µM) | 0.125 (≈ 0.313 µM) | 4 (≈ 10 µM) | 4 (≈ 10 µM) | 0.063 (≈ 0.158 µM) | 0.016 (≈ 0.0401 µM) | – | – | – | – | – | – | –
2 | CN(C)CCCCOC(=O)c1c2c(n3cc(Br)ccc13)C(=O)c1ncccc1C2=O | 1 (≈ 2.13 µM) | 4 (≈ 8.5 µM) | 2 (≈ 4.25 µM) | 4 (≈ 8.5 µM) | 16 (≈ 34 µM) | 8 (≈ 17 µM) | 0.25 (≈ 0.532 µM) | 2 (≈ 4.25 µM) | – | – | – | – | – | – | –
3 | CN(C)CCCOC(=O)c1c2c(n3cc(Br)ccc13)C(=O)c1ncccc1C2=O | 1 (≈ 2.19 µM) | 1 (≈ 2.19 µM) | 1 (≈ 2.19 µM) | 2 (≈ 4.38 µM) | 16 (≈ 35.1 µM) | 8 (≈ 17.5 µM) | 0.25 (≈ 0.548 µM) | 2 (≈ 4.38 µM) | – | – | – | – | – | – | –
4 | CCOC(=O)c1c2c(n3cccc(Br)c13)C(=O)c1nccnc1C2=O | > 16 | 1 (≈ 2.5 µM) | – | – | – | – | – | – | – | – | – | – | – | – | –
5 | CCOC(=O)c1c2c(n3cc(Br)ccc13)C(=O)c1nccnc1C2=O | 16 (≈ 40 µM) | 0.25 (≈ 0.625 µM) | – | – | – | – | – | – | – | – | – | – | – | – | –
6 | O=C1c2cccnc2C(=O)c2c1c(C(=O)OCCCN1CCOCC1)c1ccc(Br)cn21 | 16 (≈ 32.1 µM) | 0.5 (≈ 1 µM) | 0.5 (≈ 1 µM) | 4 (≈ 8.03 µM) | 16 (≈ 32.1 µM) | 16 (≈ 32.1 µM) | 0.25 (≈ 0.502 µM) | 2 (≈ 4.01 µM) | – | – | – | – | – | – | –
7 | COP(=O)(CCOC(=O)c1c2c(n3cc(Br)ccc13)C(=O)c1ncccc1C2=O)OC | 16 (≈ 31.5 µM) | 1 (≈ 1.97 µM) | 1 (≈ 1.97 µM) | 1 (≈ 1.97 µM) | 16 (≈ 31.5 µM) | 16 (≈ 31.5 µM) | 0.5 (≈ 0.986 µM) | 0.5 (≈ 0.986 µM) | – | – | – | – | – | – | –
8 | CN(C)CCCCCCOC(=O)c1c2c(n3cc(Br)ccc13)C(=O)c1ncccc1C2=O | 2 (≈ 4.01 µM) | 0.25 (≈ 0.502 µM) | 0.25 (≈ 0.502 µM) | 0.5 (≈ 1 µM) | 8 (≈ 16.1 µM) | 2 (≈ 4.01 µM) | ≤ 0.0078 | 0.5 (≈ 1 µM) | – | – | – | – | – | – | –
9 | O=C1c2cccnc2C(=O)c2c1c(C(=O)OCCCO)c1ccc(Br)cn21 | 8 (≈ 18.6 µM) | 0.125 (≈ 0.291 µM) | 0.25 (≈ 0.582 µM) | 0.25 (≈ 0.582 µM) | 8 (≈ 18.6 µM) | 8 (≈ 18.6 µM) | 0.125 (≈ 0.291 µM) | 0.25 (≈ 0.582 µM) | – | – | – | – | – | – | –
10 | O=C1c2cccnc2C(=O)c2c1c(C(=O)OCCCN1CCCC1)c1ccc(Br)cn21 | 0.5 (≈ 1.04 µM) | 2 (≈ 4.15 µM) | 1 (≈ 2.07 µM) | 2 (≈ 4.15 µM) | 8 (≈ 16.6 µM) | 4 (≈ 8.29 µM) | 0.25 (≈ 0.518 µM) | 1 (≈ 2.07 µM) | – | – | – | – | – | – | –
11 | CN1CCN(CCCCOC(=O)c2c3c(n4cc(Br)ccc24)C(=O)c2ncccc2C3=O)CC1 | 8 (≈ 15.2 µM) | 0.25 (≈ 0.476 µM) | 0.5 (≈ 0.952 µM) | 1 (≈ 1.9 µM) | 8 (≈ 15.2 µM) | 2 (≈ 3.81 µM) | 0.031 (≈ 0.059 µM) | 0.5 (≈ 0.952 µM) | – | – | – | – | – | – | –
12 | O=C1c2cccnc2C(=O)c2c1c(C(=O)OCCN1CCCC1)c1ccc(Br)cn21 | 0.5 (≈ 1.07 µM) | 0.5 (≈ 1.07 µM) | 0.5 (≈ 1.07 µM) | 0.5 (≈ 1.07 µM) | 8 (≈ 17.1 µM) | 4 (≈ 8.54 µM) | 0.031 (≈ 0.0662 µM) | 0.5 (≈ 1.07 µM) | – | – | – | – | – | – | –
13 | CN1CCN(CCCCCOC(=O)c2c3c(n4cc(Br)ccc24)C(=O)c2ncccc2C3=O)CC1 | 2 (≈ 3.71 µM) | 0.25 (≈ 0.463 µM) | 0.25 (≈ 0.463 µM) | 0.25 (≈ 0.463 µM) | 8 (≈ 14.8 µM) | 2 (≈ 3.71 µM) | ≤ 0.0078 | 0.25 (≈ 0.463 µM) | – | – | – | – | – | – | –
14 | O=C1c2cccnc2C(=O)c2c1c(C(=O)OCCCCCCN1CCCC1)c1ccc(Br)cn21 | 1 (≈ 1.91 µM) | 0.5 (≈ 0.953 µM) | 0.5 (≈ 0.953 µM) | 2 (≈ 3.81 µM) | 4 (≈ 7.63 µM) | 1 (≈ 1.91 µM) | ≤ 0.0078 | 0.5 (≈ 0.953 µM) | – | – | – | – | – | – | –
15 | O=C1c2cccnc2C(=O)c2c1c(C(=O)OCCCCN1CCCCC1)c1ccc(Br)cn21 | 4 (≈ 7.84 µM) | 1 (≈ 1.96 µM) | 1 (≈ 1.96 µM) | 2 (≈ 3.92 µM) | 16 (≈ 31.3 µM) | 4 (≈ 7.84 µM) | 0.125 (≈ 0.245 µM) | 1 (≈ 1.96 µM) | – | – | – | – | – | – | –
16 | O=C1c2cccnc2C(=O)c2c1c(C(=O)OCCCN1CCCCC1)c1ccc(Br)cn21 | 8 (≈ 16.1 µM) | 4 (≈ 8.06 µM) | 4 (≈ 8.06 µM) | 2 (≈ 4.03 µM) | 16 (≈ 32.2 µM) | 16 (≈ 32.2 µM) | 0.5 (≈ 1.01 µM) | 4 (≈ 8.06 µM) | – | – | – | – | – | – | –
17 | O=C1c2cccnc2C(=O)c2c1c(C(=O)OCCCCCN1CCCCC1)c1ccc(Br)cn21 | 4 (≈ 7.63 µM) | 1 (≈ 1.91 µM) | 2 (≈ 3.81 µM) | 1 (≈ 1.91 µM) | 8 (≈ 15.3 µM) | 4 (≈ 7.63 µM) | 0.125 (≈ 0.238 µM) | 0.5 (≈ 0.953 µM) | – | – | – | – | – | – | –
18 | O=C1c2cccnc2C(=O)c2c1c(C(=O)OCC(O)CO)c1ccc(Br)cn21 (configuration not stated) | 4 (≈ 8.98 µM) | 2 (≈ 4.49 µM) | 2 (≈ 4.49 µM) | 4 (≈ 8.98 µM) | 16 (≈ 35.9 µM) | 16 (≈ 35.9 µM) | 1 (≈ 2.25 µM) | > 16 | – | – | – | – | – | – | –
19 | O=C1c2cccnc2C(=O)c2c1c(C(=O)OCCO)c1ccc(Br)cn21 | 4 (≈ 9.63 µM) | 0.125 (≈ 0.301 µM) | 0.125 (≈ 0.301 µM) | 0.5 (≈ 1.2 µM) | 8 (≈ 19.3 µM) | 8 (≈ 19.3 µM) | 0.125 (≈ 0.301 µM) | 0.25 (≈ 0.602 µM) | – | – | – | – | – | – | –
20 | CN1CCN(CCCOC(=O)c2c3c(n4cc(Br)ccc24)C(=O)c2ncccc2C3=O)CC1 | > 16 | 8 (≈ 15.6 µM) | 4 (≈ 7.82 µM) | 16 (≈ 31.3 µM) | 16 (≈ 31.3 µM) | 16 (≈ 31.3 µM) | 4 (≈ 7.82 µM) | > 16 | – | – | – | – | – | – | –
21 | O=C1c2cccnc2C(=O)c2c1c(C(=O)OCCCCN1CCCC1)c1ccc(Br)cn21 | 1 (≈ 2.01 µM) | 2 (≈ 4.03 µM) | 1 (≈ 2.01 µM) | 4 (≈ 8.06 µM) | 8 (≈ 16.1 µM) | 4 (≈ 8.06 µM) | 0.125 (≈ 0.252 µM) | 1 (≈ 2.01 µM) | – | – | – | – | – | – | –
22 | CN1CCN(CCOC(=O)c2c3c(n4cc(Br)ccc24)C(=O)c2ncccc2C3=O)CC1 | 1 (≈ 2.01 µM) | 2 (≈ 4.02 µM) | 2 (≈ 4.02 µM) | 8 (≈ 16.1 µM) | 8 (≈ 16.1 µM) | 16 (≈ 32.2 µM) | 1 (≈ 2.01 µM) | 8 (≈ 16.1 µM) | – | – | – | – | – | – | –
23 | O=C1c2cccnc2C(=O)c2c1c(C(=O)OCCCCCN1CCCC1)c1ccc(Br)cn21 | 2 (≈ 3.92 µM) | 0.5 (≈ 0.98 µM) | 0.5 (≈ 0.98 µM) | 0.25 (≈ 0.49 µM) | 8 (≈ 15.7 µM) | 1 (≈ 1.96 µM) | ≤ 0.0078 | 0.5 (≈ 0.98 µM) | – | – | – | – | – | – | –
24 | CC1(C)S[C@@H]2[C@H](NC(=O)Cc3ccccc3)C(=O)N2[C@H]1C(=O)O [PENICILLIN G] | > 16 | 0.063 (≈ 0.188 µM) | > 16 | ≤ 0.0078 | ≤ 0.0078 | ≤ 0.0078 | 8 (≈ 23.9 µM) | 1 (≈ 2.99 µM) | – | – | – | – | – | – | –
25 | CN[C@H](CC(C)C)C(=O)N[C@H]1C(=O)N[C@@H](CC(N)=O)C(=O)N[C@H]2C(=O)N[C@H]3C(=O)N[C@H](C(=O)N[C@H](C(=O)O)c4cc(O)cc(O)c4-c4cc3ccc4O)[C@H](O)c3ccc(c(Cl)c3)Oc3cc2cc(c3O[C@@H]2O[C@H](CO)[C@@H](O)[C@H](O)[C@H]2O[C@H]2C[C@](C)(N)[C@H](O)[C@H](C)O2)Oc2ccc(cc2Cl)[C@H]1O [VANCOMYCIN] | – | – | – | – | – | – | – | – | 1 (≈ 0.69 µM) | 2 (≈ 1.38 µM) | 16 (≈ 11 µM) | > 16 | > 16 | > 16 | > 16
